Values quoted from earlier work as cited in US11441198B2 (priority 2016, dated 2022).

Key:
influenza virus = details: double-blind randomized placebo-controlled trial

| SMILES | symptoms (influenza virus) | antiviral activity against influenza viruses (influenza viruses) |
| --- | --- | --- |
| CC(=O)Oc1ccccc1C(=O)Nc1ncc([N+](=O)[O-])s1 [Nitazoxanide] | associated with improvement in symptoms |  |
| COc1c(C)c2c(c(O)c1C/C=C(\C)CCC(=O)O)C(=O)OC2 [mycophenolic acid] |  | has antiviral activity |
